# Reference: patent US20190054054A1, “Methods reducing or preventing oxidation of high density lipoprotein (HDL)” (Amarin Pharmaceuticals Ireland Limited, priority 2017, published 2019)
# What was measured:
# [1] = test system: HUVECs; assay: NO release from HUVECs incubated with agent-treated oxidized sdLDL (Example 12); assay type: cell-based, human; conditions: for reduction of NO release as compared to vehicle-treated, oxidized sdLDL: oxidized sdLDL pretreated with agent at 10.0 μM
# Description: All samples, with the exception of non-oxidized sdLDL controls, were subjected to copper-induced oxidation for 1 hour. Human umbilical vein endothelial cells (HUVECs) were incubated with the various sdLDL samples, stimulated with calcium, and monitored for nitric oxide (NO) and peroxynitrite (ONOO^−) release using nanosensor technology.
# [2] = Membrane cholesterol domain peak intensity, x-ray diffraction of POPC/cholesterol membranes (Example 9); conditions: 1.5:1 C/P mole ratio; for % change Vs control / Relative Cholesterol Domain Preak Intensity: drug-to-phospholipid mole ratio 1:30; for Relative Cholesterol Domain Preak Intensity: POPC and cholesterol
# Description: The fatty acid stock solutions were stored at −20° C. until use. […] Samples were shell-dried under nitrogen gas and placed under vacuum for 3 hours to remove residual solvent at room temperature. After desiccation, each sample was resuspended in saline buffer (0.5 mM HEPES, 154 mM NaCl, pH 7.3) to yield a final phospholipid concentration of 2.5 mg/mL. Lipid suspensions were then vortexed for 3 minutes at ambient temperature to form MLVs. Membrane lipid vesicles were oriented for x-ray diffraction analysis as described by others (e.g., Herbette et al., Biophys. […] Briefly, a 100 μL aliquot of each MLV preparation (containing 250 μg MLV) was transferred to a Lucite® sedimentation cell fitted with an aluminum foil substrate designed to collect MLVs into a single membrane pellet upon centrifugation. […] After centrifugal orientation, sample supernatants were aspirated and aluminum foil substrates, each supporting a single membrane pellet, were removed from the sedimentation cells. Sample pellets were dried for 5-10 minutes at ambient conditions, mounted onto curved glass supports, and placed in hermetically-sealed, brass or glass containers (for immediate analysis or temporary storage, respectively). All x-ray diffraction experiments were conducted at 20° C., 74% relative humidity. The latter was established by exposing membrane samples to saturated solutions of L-(+)-tartaric acid (K2C4H4O6.½H2O) for at least 1 hour prior to experimental analysis. Oriented membrane samples were aligned at grazing incidence with respect to a collimated, mono-chromatic CuKα x-ray beam (Kα1 and Kα2 unresolved; λ=1.54 Å) produced by a Rigaku Rotaflex RU-200, high-brilliance microfocus generator (Rigaku-MSC, The Woodlands, Tex.) as previously described (Mason et al., Biophys. J., vol. 55(4), pages 769-778 (1989)). The samples were initially subjected to x-ray diffraction analysis at least 12 hours after formation of the membrane pellets and retested for up to several days. Analytical x-rays were generated by electron bombardment of a rotating copper anode and are filtered through a thin nickel foil to provide monochromatic radiation (λ=1.54 Å). Collimation of the x-ray beam was achieved using a single Franks mirror. Diffraction data were collected on a one-dimensional, position-sensitive electron detector (Hecus X-ray Systems, Graz, Austria) at a sample-to-detector distance of 150 mm from the sample site. The d-space for any given membrane multi bilayer is a measurement of the unit cell periodicity of the membrane lipid bilayer (e.g., the distance from the center of one lipid bilayer to the next including surface hydration), and is calculated from Bragg's Law, h λ=2 d sin θ, where h is the diffraction order, λ is the wavelength of the x-ray radiation (1.54 Å), d is the membrane lipid bilayer unit cell periodicity, and θ is the Bragg angle equal to one-half the angle between the incident beam and scattered beam. […] Routines written in Origin 8.6 (OriginLab Corporation, Northampton, Mass.) were used to determine total peak area (associated with all diffraction peaks in a given pattern) against which the second-order cholesterol domain peak was normalized. The raw data collected in this study was normalized using internal. Data were presented as mean+S.E.M. for (N) separate samples or treatment groups. Differences between groups were analyzed using the two-tailed, Student's t-test (for comparisons between only two groups) or ANOVA followed by Dunnett or Student-Newman-Keuls multiple comparisons post-hoc analysis (for comparisons between three or more groups). Alpha error was set to 0.05 in this study.
# [3] = test system: human sdLDL; assay: Copper-induced sdLDL oxidation, TBARS (Example 7); assay type: biochemical; conditions: for effect on sdLDL oxidation as compared to vehicle-treated controls: all at 10 μM, 1 hour (FIG. 16)
# Description: (§1) An experiment to study the antioxidant effect of EPA in LDL and small dense […] performed. […] Fenofibrate, gemfibrozil, and niacin were purchased from Sigma-Aldrich. […] Vitamin E was also incubated with sample aliquots as a positive control.
# [4] = test system: human LDL; assay: Copper-induced oxidation of unfractionated LDL, TBARS (Example 7); assay type: biochemical; conditions: for effect on unfractionated LDL oxidation as compared to vehicle-treated controls: all agents at 10 μM, 1 hour (FIG. 25)
# Description: as §1
# [5] = EPA to phospholipid mole ratio 1:60
# [6] = EPA to phospholipid mole ratio 1:90
structure (smiles),measurement,setting,value
"CC/C=C\C/C=C\C/C=C\C/C=C\C/C=C\CCCC(=O)O [EPA, cis-5,8,11,14,17-eicosapentaenoic acid]",increase in NO release as compared to non-oxidized sdLDL treatment,"[1]; EPA-treated, oxidized sdLDL",23%
same,increase in NO release as compared to oxidized LDL treatment,"[1]; EPA-treated, oxidized sdLDL",53%
same,HUVEC NO release,"[1]; exposure to EPA-treated (10.0 μM), oxidized sdLDL",931 ± 59 nM
same,reduction in cholesterol domain peaks as compared to vehicle treatment,[2]; 1:30,65%
same,% Change (vs. Control),[2]; [5],−30.2 ± 27.9%
same,Relative Cholesterol Domain Peak Intensity,[2]; [5],29.5 ± 10.9
same,% Change (vs. Control),[2]; [6],−15.0 ± 12.6%
same,Relative Cholesterol Domain Peak Intensity,[2]; [6],36.0 ± 3.1
same,% change Vs control,[2],−65.5 ± 17.1%
same,Relative Cholesterol Domain Preak Intensity,[2],14.6±5
same,inhibition of sdLDL oxidation as compared to vehicle,"[3]; 1.0 μM (each agent), 1 hr",19±8%
same,effect on sdLDL oxidation as compared to vehicle or DHA,"[3]; 10.0 μM, after 4 hours",significantly inhibited sdLDL oxidation
same,IC50,"[3]; 1 hr, 10 μM CuSO4, read-out: IC50, inhibition of sdLDL oxidation (calculated)",~2 µM
same,inhibition of sdLDL oxidation as compared to vehicle,"[3]; each agent at 10.0 μM, 1 hour (FIG. 17)",92±8%
same,inhibition of TBARS formation,"[3]; highest treatment concentration (10 μM), 1 hr",93±2%
same,"effect on unfractionated LDL oxidation, dose dependence",[4]; 1 hour,significantly and reproducibly inhibited unfractionated LDL oxidation in a dose-dependent manner
same,inhibition of TBARS formation compared to vehicle-treated control,"[4]; highest treatment concentration, 1 hour",> 90%
Cc1ccc(C)c(OCCCC(C)(C)C(=O)O)c1 [gemfibrozil],"reduction of NO release as compared to vehicle-treated, oxidized sdLDL",[1],33%
same,effect on cholesterol domains (in words),[2]; 1:30,no significant changes in cholesterol domain size
same,% change Vs control,[2],11%
same,% change Vs control,[2]; listed as Gemfib,10.9 ± 43.3%
same,Relative Cholesterol Domain Preak Intensity,[2],46.9±12.6
same,Relative Cholesterol Domain Preak Intensity,[2]; listed as Gemfib,46.9 ± 12.6
same,effect on sdLDL oxidation as compared to vehicle-treated controls,[3],no significant effect on sdLDL oxidation
same,effect on unfractionated LDL oxidation as compared to vehicle-treated controls,[4],no significant effect on unfractionated LDL oxidation
"O=C(O)c1cccnc1 [niacin, nicotinic acid]","reduction of NO release as compared to vehicle-treated, oxidized sdLDL",[1],45%
same,effect on cholesterol domains (in words),[2]; 1:30,no significant changes in cholesterol domain size
same,% change Vs control,[2],−35%
same,% change Vs control,[2]; listed as Niacin,−35.0 ± 30.8%
same,Relative Cholesterol Domain Preak Intensity,[2],27.5±12.2
same,Relative Cholesterol Domain Preak Intensity,[2]; listed as Niacin,27.5 ± 12.2
same,effect on sdLDL oxidation as compared to vehicle-treated controls,[3],no significant effect on sdLDL oxidation
same,effect on unfractionated LDL oxidation as compared to vehicle-treated controls,[4],no significant effect on unfractionated LDL oxidation
"Cc1c(C)c2c(c(C)c1O)CC[C@@](C)(CCC[C@H](C)CCC[C@H](C)CCCC(C)C)O2 [vitamin E, α-tocopherol]",effect on sdLDL oxidation as compared to vehicle-treated controls,[3],no significant effect on sdLDL oxidation
same,effect on unfractionated LDL oxidation as compared to vehicle-treated controls,[4],no significant effect on unfractionated LDL oxidation
